Measurements as given in patent US20110160193A1, “New Benzothiazinone Derivatives and Their Use as Antibacterial Agents” (Leibniz Institute for Natural Product Research and …, priority 2006, published 2011).
≈ marks a conversion by molar mass, not a printed value. Like-named read-outs stand apart in the source and are kept apart here.

Tests used:
[1] = Toxicity after per os administration; assay type: in vivo; conditions: mice
Protocol: The compound of the invention (especially compound no 2=example 1 in the embodiments), is non toxic after per os administration of doses ranging up to 2000 mg/kg was the compound was well endured by animals in the first and 24 next coming hours after introducing. […] LD50 for compound 2 is >2000 mg/kg.

[2] = system: Mycobacterium tuberculosis H37Rv; experiment: Murine TB model, hematogenously disseminated tuberculosis; assay type: in vivo, BALB/c line mice; conditions: 10 animals per group
[3] = system: Mycobacterium smegmatis SG 987; experiment: MIC by micro broth dilution method in Mueller-Hinton broth (NCCLS); assay type: cell-based
[4] = system: M. fortuitum B; experiment: as above; assay type: cell-based
[5] = system: M. vaccae IMET 1010670; experiment: as above; assay type: cell-based
[6] = system: Mycobacterium tuberculosis clinical isolate 6341; experiment: MIC and MBC in liquid Shkolnikova medium / solid Lowenstein-Jensen medium; assay type: cell-based
[7] = Mycolicibacterium smegmatis, SG987
[8] = Mycolicibacterium vaccae, IMET1010670

SMILES: CC1COC2(CCN(c3nc(=O)c4cc(C(F)(F)F)cc([N+](=O)[O-])c4s3)CC2)O1 (stereo not drawn) [Compound 2, 2-(2-methyl-1,4-dioxa-8-azaspiro[4.5]dec-8-yl)-8-nitro-6-(trifluoro-methyl)-1,3-benzothiazin-4-one]
- Toxicity after per os administration ([1]; doses ranging up to 2000 mg/kg, 7 days of investigations): non toxic
- LD50 ([1]; per os): > 2000 mg/kg
- Survival of animals ([2]; day of treatment 1, 12 mg/kg): 10
- Survival of animals ([2]; day of treatment 1, 25 mg/kg): 10
- Survival of animals ([2]; day of treatment 2, 12 mg/kg): 10
- Survival of animals ([2]; day of treatment 2, 25 mg/kg): 10
- Survival of animals ([2]; day of treatment 3, 12 mg/kg): 10
- Survival of animals ([2]; day of treatment 3, 25 mg/kg): 10
- Survival of animals ([2]; day of treatment 4, 12 mg/kg): 10
- Survival of animals ([2]; day of treatment 4, 25 mg/kg): 10
- Survival of animals ([2]; day of treatment 5, 12 mg/kg): 10
- Survival of animals ([2]; day of treatment 5, 25 mg/kg): 10
- Survival of animals ([2]; day of treatment 6, 12 mg/kg): 10
- Survival of animals ([2]; day of treatment 6, 25 mg/kg): 10
- Survival of animals ([2]; day of treatment 7, 12 mg/kg): 10
- Survival of animals ([2]; day of treatment 7, 25 mg/kg): 10
- Survival of animals ([2]; day of treatment 8, 12 mg/kg): 10
- Survival of animals ([2]; day of treatment 8, 25 mg/kg): 10
- Survival of animals ([2]; day of treatment 9, 12 mg/kg): 10
- Survival of animals ([2]; day of treatment 9, 25 mg/kg): 10
- Survival of animals ([2]; day of treatment 10, 12 mg/kg): 10
- Survival of animals ([2]; day of treatment 10, 25 mg/kg): 10
- Survival of animals ([2]; day of treatment 11, 12 mg/kg): 10
- Survival of animals ([2]; day of treatment 11, 25 mg/kg): 10
- Survival of animals ([2]; day of treatment 12, 12 mg/kg): 10
- Survival of animals ([2]; day of treatment 12, 25 mg/kg): 10
- Survival of animals ([2]; day of treatment 13, 12 mg/kg): 10
- Survival of animals ([2]; day of treatment 13, 25 mg/kg): 10
- Survival of animals ([2]; day of treatment 14, 12 mg/kg): 10
- Survival of animals ([2]; day of treatment 14, 25 mg/kg): 10
- Survival of animals ([2]; day of treatment 15, 12 mg/kg): 10
- Survival of animals ([2]; day of treatment 15, 25 mg/kg): 10
- Survival of animals ([2]; day of treatment 16, 12 mg/kg): 10
- Survival of animals ([2]; day of treatment 16, 25 mg/kg): 10
- Survival of animals ([2]; day of treatment 17, 12 mg/kg): 10
- Survival of animals ([2]; day of treatment 17, 25 mg/kg): 10
- Survival of animals ([2]; day of treatment 18, 12 mg/kg): 10
- Survival of animals ([2]; day of treatment 18, 25 mg/kg): 10
- Survival of animals ([2]; day of treatment 19, 12 mg/kg): 10
- Survival of animals ([2]; day of treatment 19, 25 mg/kg): 10
- Survival of animals ([2]; day of treatment 20, 12 mg/kg): 10
- Survival of animals ([2]; day of treatment 20, 25 mg/kg): 10
- Survival of animals ([2]; day of treatment 21, 12 mg/kg): 10
- Survival of animals ([2]; day of treatment 21, 25 mg/kg): 10
- Survival of animals ([2]; day of treatment 22, 12 mg/kg): 10
- Survival of animals ([2]; day of treatment 22, 25 mg/kg): 10
- Survival of animals ([2]; day of treatment 23, 12 mg/kg): 10
- Survival of animals ([2]; day of treatment 23, 25 mg/kg): 10
- Survival of animals ([2]; day of treatment 24, 12 mg/kg): 10
- Survival of animals ([2]; day of treatment 24, 25 mg/kg): 10
- Survival of animals ([2]; day of treatment 25, 12 mg/kg): 10
- Survival of animals ([2]; day of treatment 25, 25 mg/kg): 10
- Survival of animals ([2]; day of treatment 26, 12 mg/kg): 10
- Survival of animals ([2]; day of treatment 26, 25 mg/kg): 10
- Survival of animals ([2]; day of treatment 27, 12 mg/kg): 100%
- Survival of animals ([2]; day of treatment 27, 25 mg/kg): 100%

SMILES: O=c1nc(N2CCC3(CC2)OCCO3)sc2c([N+](=O)[O-])cc([N+](=O)[O-])cc12 [Compound 3, 2-(1,4-dioxa-8-azaspiro[4.5]dec-8-yl)-6,8-dinitro-1,3-benzothiazin-4-one]
- MIC [3, 7]: 0.2 mg/L (≈ 0.507 µM)
- MIC ([4]; Mycolicibacterium fortuitum): 0.006 mg/L (≈ 0.0152 µM)
- MIC [5, 8]: 0.0015 mg/L (≈ 0.0038 µM)
- melting point: 271 to 273 °C

SMILES: CC1COC2(CCN(c3nc(=O)c4cc([N+](=O)[O-])cc([N+](=O)[O-])c4s3)CC2)O1 (stereo not drawn) [Compound 4, 2-(2-methyl-1,4-dioxa-8-azaspiro[4.5]decyl)-6,8-dinitro-1,3-benzothiazin-4-one]
- MIC ([3]; M. smegmatis): 0.2 mg/L (≈ 0.49 µM)
- MIC ([4]; M. fortuitum): 0.003 mg/L (≈ 0.00735 µM)
- MIC ([5]; M. vaccae): 0.003 mg/L (≈ 0.00735 µM)

SMILES: CC1OC2(CCN(c3nc(=O)c4cc(C(F)(F)F)cc([N+](=O)[O-])c4s3)CC2)OC1C (stereo not drawn) [Compound 5, 2-(2,3-dimethyl-1,4-dioxa-8-azaspiro[4.5]dec-8-yl)-8-nitro-6-(trifluoromethyl)-1,3-benzothiazin-4-one]
- MIC [6]: 0.39 mg/L (≈ 0.876 µM)

SMILES: CCOC1(OCC)CCN(c2nc(=O)c3cc([N+](=O)[O-])cc([N+](=O)[O-])c3s2)CC1 [Compound 6, 2-(4,4-diethoxypiperidin-1-yl)-6,8-dinitro-1,3-benzothiazin-4-one]
- melting point: 179 to 181 °C

SMILES: O=c1nc(N2CCC3(CC2)OCCCCO3)sc2c([N+](=O)[O-])cc([N+](=O)[O-])cc12 [Compound 7, 2-(7,12-dioxa-3-azaspiro[5.6]dodec-3-yl)-6,8-dinitro-1,3-benzothiazin-4-one]
- MIC [3, 7]: 0.78 mg/L (≈ 1.85 µM)
- MIC ([4]; Mycolicibacterium fortuitum): 0.003 mg/L (≈ 0.0071 µM)
- MIC [5, 8]: 0.003 mg/L (≈ 0.0071 µM)
- melting point: 193 to 195 °C

SMILES: Cc1c([N+](=O)[O-])cc2c(=O)nc(N3CCC4(CC3)OCCO4)sc2c1[N+](=O)[O-] [Compound 8, 2-(1,4-dioxa-8-azaspiro[4.5]dec-8-yl)-7-methyl-6,8-dinitro-1,3-benzothiazin-4-one]
- MIC [3, 7]: 0.4 mg/L (≈ 0.979 µM)
- MIC ([4]; Mycolicibacterium fortuitum): 0.025 mg/L (≈ 0.0612 µM)
- MIC [5, 8]: 0.025 mg/L (≈ 0.0612 µM)
- melting point: 207 to 210 °C

SMILES: N#Cc1cc([N+](=O)[O-])c2sc(N3CCC4(CC3)OCCO4)nc(=O)c2c1 [Compound 9, 2-(1,4-dioxa-8-azaspiro[4.5]dec-8-yl)-8-nitro-4-oxo-1,3-benzothiazine-6-carbonitrile]
- melting point: 217 to 220 °C

SMILES: N#Cc1cc([N+](=O)[O-])c2sc(N3CCC4(CC3)OCCCO4)nc(=O)c2c1 [Compound 11, 2-(1,5-dioxa-9-azaspiro[5.5]undec-9-yl)-8-nitro-4-oxo-1,3-benzothiazine-6-carbonitrile]
- MIC ([3]; Mycolicibacterium smegmatis, SG987, M. smegmatis, read-out: MIC): 0.05 mg/L (≈ 0.129 µM)
- MIC ([4]; Mycolicibacterium fortuitum, M. fortuitum, read-out: MIC): 0.025 mg/L (≈ 0.0644 µM)
- MIC ([5]; Mycolicibacterium vaccae, IMET1010670, M. vaccae, read-out: MIC): 0.00625 mg/L (≈ 0.0161 µM)
- melting point: 230 to 232 °C

SMILES: NNC(=O)c1ccncc1 [Isoniazid, reference compound]
- Survival of animals ([2]; day of treatment 1, 25 mg/kg): 10
- Survival of animals ([2]; day of treatment 2, 25 mg/kg): 10
- Survival of animals ([2]; day of treatment 3, 25 mg/kg): 10
- Survival of animals ([2]; day of treatment 4, 25 mg/kg): 10
- Survival of animals ([2]; day of treatment 5, 25 mg/kg): 10
- Survival of animals ([2]; day of treatment 6, 25 mg/kg): 10
- Survival of animals ([2]; day of treatment 7, 25 mg/kg): 10
- Survival of animals ([2]; day of treatment 8, 25 mg/kg): 10
- Survival of animals ([2]; day of treatment 9, 25 mg/kg): 10
- Survival of animals ([2]; day of treatment 10, 25 mg/kg): 10
- Survival of animals ([2]; day of treatment 11, 25 mg/kg): 10
- Survival of animals ([2]; day of treatment 12, 25 mg/kg): 10
- Survival of animals ([2]; day of treatment 13, 25 mg/kg): 10
- Survival of animals ([2]; day of treatment 14, 25 mg/kg): 10
- Survival of animals ([2]; day of treatment 15, 25 mg/kg): 10
- Survival of animals ([2]; day of treatment 16, 25 mg/kg): 10
- Survival of animals ([2]; day of treatment 17, 25 mg/kg): 10
- Survival of animals ([2]; day of treatment 18, 25 mg/kg): 10
- Survival of animals ([2]; day of treatment 19, 25 mg/kg): 10
- Survival of animals ([2]; day of treatment 20, 25 mg/kg): 10
- Survival of animals ([2]; day of treatment 21, 25 mg/kg): 10
- Survival of animals ([2]; day of treatment 22, 25 mg/kg): 10
- Survival of animals ([2]; day of treatment 23, 25 mg/kg): 10
- Survival of animals ([2]; day of treatment 24, 25 mg/kg): 10
- Survival of animals ([2]; day of treatment 25, 25 mg/kg): 10
- Survival of animals ([2]; day of treatment 26, 25 mg/kg): 10
- Survival of animals ([2]; day of treatment 27, 25 mg/kg): 100%
